Entries after “also recorded” stand apart in the source; their conditions may differ.
Columns and labels:
[1] = tested on: neutrophils; assay: Nuclear area and nuclear morphology (perimeter vs. Heywood circularity factor) of activated neutrophils, Sytox Green staining, automated microscopy; format: cell-based, Human
Procedure: During NET formation there are discrete changes in nuclear size and shape. According to the invention four distinct nuclear morphologies were defined (Fig. 1) (i) lobulated, (ii) delobulated, (iii) diffused NETs and (iv) spread NETs. […] The nuclear morphology, i.e. the morphology of the nuclear DNA was analyzed in more detail by plotting the perimeter vs. the Heywood circularity factor.
In contrast, most nuclei of neutrophils activated for 240 min, had diffused nuclei, or spread NETs that could be measured by their large perimeter and low Heywood circularity factor (Fig. 3b).
For nuclear size and shape, neutrophils were activated with PMA for 240 min, fixed with PFA (2%), permeabilized with Triton X100 (0.1%) and stained with Sytox Green. The four distinct nuclear morphologies during the progression to NET formation are lobulated, delobulated or diffused NETs and spread NETs (Fig.1). Bar=10 µm
Neutrophils were activated with PMA (40nM). Fifteen min after activation the nuclei were homogenous and smaller than 100 µm^2 in area while the nuclei of activated neutrophils were heteregenous and between 150 and more than 350 µm^2 (Figs. 3). Each dot in Figs. 3 (Dot plot of nuclei analyzed for perimeter vs. Heywood circularity factor) represents a nucleus. Gates were set to distinguish between lobulated, delobulated, diffused NETs and spread NETs.
In Fig. 3a fifteen min after activation, more than 95% of the nuclei were either lobulated or delobulated. […] The images were generated by an automated microscopy system and analyzed by image analysis software Scan ^R.

[2] = tested on: neutrophils; assay: Quantification of cell viability with Sytox Green, fluorometer; format: cell-based, Human; settings: PMA (40 nM) for 240 min, Sytox Green (2µM)
Procedure: Neutrophils were activated with PMA (40 nM) for 15 min and 240 min, stained with the vital dye Sytox Green (2µM) and analyzed with a fluorometer. […] Different numbers of neutrophils per well were plated and activated with PMA for 240 min or incubated with the non ionic detergent NP-40.

SMILES: CCCCCCCCCCCCCC(=O)O[C@@H]1[C@@H](C)[C@@]2(O)[C@@H](C=C(CO)C[C@]3(O)C(=O)C(C)=C[C@@H]23)[C@@H]2C(C)(C)[C@]12OC(C)=O [PMA, phorbol-12-myristate-13-acetate]
- nuclei either diffused or already made NETs ([1]; 240 min after activation with PMA (40nM)): more than 95%
- nuclei either lobulated or delobulated ([1]; fifteen min after activation with PMA (40nM)): more than 95%
- nuclear area (mean) ([1]; neutrophils activated with PMA (40 nM) for 240 min, SD: 109µm^2, n: 2000): 244 µm^2
- cell death (Sytox Green fluorescence) [2]: fluorescent, indicating cell death; also recorded: most cells die after activation
